Legend:
[1] = test system: pluripotent lines (ES, iPS); assay: Additional molecules added to Differentiation Medium 1, FACS and flow cytometry; type: cell-based, human; conditions: for total number of cells: added to Differentiation Medium 1 (contains DEAB): LG101506 1 uM, sodium selenite 100 nM, valproic acid 1 mM
Experimental: (§1) Cells from the differentiation cultures were collected at time points indicated and washed in phosphate-buffered saline (PBS) supplemented with 2% FBS. Adherent cells were individualized using TrypLE (Life Technologies, Carlsbad Calif.), passed through a 27.5-gauge needle and filtered through a 40-70 μm cell strainer (BD Falcon, San Diego, Calif., www.bdbiosciences.com). Cells were treated with 7-aminoactinomycin D (7AAD) before analysis, and positive cells were gated out of results. Cells were stained with fluorescence-conjugated antibodies for the hematopoietic stem and progenitor cell markers CD45, CD43, CD34, CD38, CD90; CD45RA. Cells were analyzed on a FACS Canto (BD, Franklin Lakes, N.J., www.bd.com).
We have completed a number of studies to establish other molecules that may further improve the yields and phenotypes of hematopoietic cells derived using Differentiation Medium 1. Tested compounds were Cripto, LY2228820, valproic acid (VPA), sodium selenite, and butein. In all instances, each molecule below was supplemented into Differentiation Medium 1 to study their effect in concert with DEAB. All control experiments for these molecules were cells differentiated using Differentiation Medium 1 (which already contains DEAB). The data we report below for these molecules illustrates how they may improve the yield of hematopoietic progenitors and phenotypic stem cells measured by FACS, flow cytometry, and CFU assays. […] The in vivo engraftment studies to confirm this for these molecules are underway.
(§2) It has been shown that DS DNA breaks reduce transplant efficiency of repopulating HSCs. In vitro derived blood from pluripotent stem cell has high levels of DNA damage. Inhibition of DNA damage and the DNA damage response, from reactive oxygen species (ROS) or other sources of damage (radiation, chemical etc) in pluripotent stem cell differentiation systems will decrease DNA damage and increase hematopoietic cell number, repopulating ability and increase the differentiation potential of the cells (i.e. expansion of downstream lineages). See Yahata et al. Blood, 2011, 118(11):2941-50). […] Adding sodium selenite (100 nM) and butein (10 uM) independently to Differentiation Medium 1 increased enzyme activity for protection against reactive oxygen species (ROS). […] See FIGS. 11A and 11B for sodium selenite and FIGS. 12A and 12B for butein. These studies are being expanded into dose response experiments from which we expect to identify optimal concentrations.
From the pluripotent stem cells differentiated with Differentiation Medium 1 supplemented with 1 mM of valproic acid, we see that all CD34+CD38− cells were 100% CD90+. […] Engraftment studies as described are also being conducted.

[2] = test system: NOD.Cg-Prkdc^scidI12rg^tm1Wjl/SzJ mice; assay: Pluripotent stem cell derived hematopoietic cell transplantation, engraftment; type: in vivo; conditions: Differentiation Medium 1 (containing DEAB) supplemented with the molecule; studies underway, predicted
Experimental: Single-cell suspensions of the pluripotent stem cell differentiation cultures described herein were injected into sublethally irradiated (325 rad) NOD.Cg-Prkdc^scidI12rg^tm1Wjl/SzJ mice (JAX, Bar Harbor, Me., www.jax.org) via tail vein injections, intrafemoral injection, or cardiac injection. Peripheral blood was harvested at times indicated via tail vein or retro-orbital eye bleed or cardiac puncture on anesthetized mice. Bone marrow and spleen cells were harvested at the terminal stage of the transplant experiment. Bone marrow cells were isolated via pestle mortar crushing of bone followed by rinsing and 70 micron filtering. Cells were analyzed by FACS, CFU assay, or transplanted serially into secondary and tertiary mice. FACS analysis for the human pan hematopoietic marker CD45, progenitor marker CD34, myeloid markers CD11b, CD15, CD33 and lymphoid markers CD19, CD56 and CD132, and erythroid markers CD235. When erythrocytes were not being analyzed, the red cells were lysed using ammonium chloride solution (0.8% NH4Cl with 0.1 mM EDTA) (STEMCELL Technologies, Vancouver, BC), spun, and stained with antibodies against the above-mentioned markers. All animal experiments were conducted in accordance with Institutional Animal ethical use protocols.
We have confirmed short-term engraftment and reconstitution ability of hPSC-derived HSCs produced as described in Example 1, by injecting them into sublethally irradiated (325 rad) NOD.Cg-Prkdc^sicdI12rg^tm1Wjl/SzJ mice (JAX, Bar Harbor, Me., www.jax.org) via tail vein injections, intrafemoral injection, or cardiac injection. We transplanted NOD.Cg-Prkdc^scidI12rg^tm1Wjl/SzJ mice with 3×10^6 unsorted cells or 5000 FACS sorted phenotypic HSCs (CD45+, CD43+, CD34+, CD38−, CD90+, CD45RA−) from differentiations using Differentiation Medium 1 medium not including with DEAB (Control) and Differentiation Medium 1 medium including DEAB (DEAB HSCs). […] Typical published values range from 0.1%-1.0%, including those obtained from our control where DEAB was not used to generate the HSCs (0.34%±0.1%).

[3] = test system: pluripotent stem cells (H1 ES cells and CB1 iPS cells); assay: CFU assay of cells differentiated in Differentiation Medium 1 plus additional molecule; type: cell-based, human; conditions: for size of CFU colonies: in the present system
Experimental: FIG. 14 depicts myeloid CFU cell count data for cells differentiated from pluripotent stem cells (H1 ES cells and CB1 iPS cells) in the presence of DEAB and each of Cripto (500 ng/ml), LY2228820 (shown as “LY222820”, 100 nM), Activin A, valproic acid (VPA, 1 mM), sodium selenite (100 nM), and butein (10 μM).
The differentiation cultures were trypsinized at the indicated time points and single-cell suspensions were generated following trypsinization. For the Colony Forming Unit (CFU) assays using methyl cellulose cultures, 25% of the cells were plated in 2 ml of MethoCult H4435 (STEMCELL Technologies, Vancouver, BC) in six-well plates. Alternatively, sorted CD45+, CD43+, CD34+, 7AAD-cells were sorted and plated at 500 cells per 2 ml Methocult media. Cells were incubated for 14 days in a humidified incubator at 37° C. with 5% CO2 and evaluated for colonies by bright-field microscopy (Zeiss (Oberkochen, Germany, www.zeiss.com) Axiovert 200 with a Zeiss Axiocam), Cells were resuspended in PBS supplemented with 2% FBS. For the lymphoid myeloid differentiation assays, either CD45+, CD43+, CD34+, 7AAD-hematopoietic progenitors, or CD45+, CD43+, CD34+, CD38−, CD90+, CD45RA− phenotypic HSCs were plated at 20-40 cells per well onto OP9 and OP9delta feeder lines for B-cell and T-cell differentiation, respectively, as previously described (Nozad Charoudeh H, Tang Y, Cheng M, Cilio C M, Jacobsen S E, Sitnicka E., Identification of an NK/T cell-restricted progenitor in adult bone marrow contributing to bone marrow- and thymic-dependent NK cell, Blood, 2010 Jul. 15; 116(2):183-92. NK cell differentiation as well as myeloid cell differentiation was also detected in this differentiation system. FACS analysis was performed 4-6 weeks after plating for markers of lymphoid cell differentiation with the markers indicated. Similar cell sortings were performed for single cell Terasaki plate assays of myeloid differentiation and expansion using StemSpan media (STEMCELL Technologies, Vancouver, BC) supplemented with TPO, SCF, FLT3, IL3, GM-CSF. Colony size was estimated by microscopy.
We have completed a number of studies to establish other molecules that may further improve the yields and phenotypes of hematopoietic cells derived using Differentiation Medium 1. Tested compounds were Cripto, LY2228820, valproic acid (VPA), sodium selenite, and butein. In all instances, each molecule below was supplemented into Differentiation Medium 1 to study their effect in concert with DEAB. […] The data we report below for these molecules illustrates how they may improve the yield of hematopoietic progenitors and phenotypic stem cells measured by FACS, flow cytometry, and CFU assays. […]

iPS cells = assay: LY2228820 added to Differentiation Medium 1, flow cytometry, iPS cells; type: cell-based, human; conditions: 100 nM LY2228820; FIG. 8B
Experimental: as §1
(§3) We conducted experiments to determine whether the p38 inhibitor LY2228820 could further increase hematopoietic progenitor and phenotypic stem cell outputs by acting in concert with DEAB when added to Differentiation Medium 1. Human ES and iPS cells were differentiated to progenitors and phenotypic stem cells as described, except 100 nM of LY2228820 was added to Differentiation Medium 1. Cells were then harvested as described and subjected to flow cytometry and FACS analysis using fluorescently labeled antibodies for CD45, CD43, CD34, CD38, CD90, CD45RA as described. […]

H1 ES cells = assay: LY2228820 added to Differentiation Medium 1, flow cytometry, ES cells; type: cell-based, human; conditions: 100 nM LY2228820; FIG. 8A
Experimental: as §1, §3

[4] = test system: pluripotent stem cell differentiation cultures; assay: Enzyme activity for protection against reactive oxygen species; type: cell-based, human; conditions: added independently to Differentiation Medium 1: sodium selenite 100 nM, butein 10 uM
Excerpt: as §2

human ES cells = assay: Norepinephrine added to Differentiation Medium 1, flow cytometry; type: cell-based
Experimental: as §1
We conducted experiments to reveal if human embryo AGM region-harvested cells generate neurospheres in culture to confirm the presence of neural crest cells in the AGM region. We further completed some experiments to identify a component secreted from the neural crest cells that may be involved in definitive hematopoiesis. We harvested human embryo AGM region tissue and, using fluorescent labeled antibodies specific for neural crest cells, were able to identify the presence of neural crest cells in the AGM hematopoietic niche. […] Hypothesizing norepinephrine as a potential effector secreted from the neural crest cells, we tested it for its ability to further increase progenitor and phenotypic stem cell yields when added to Differentiation Medium 1 at a concentration of 10 uM or 300 uM. Human ES and iPS cells were differentiated to progenitors and phenotypic stem cells with Differentiation Medium 1 as described. The only difference is that 10 uM or 300 uM of norepinephrine was added to Differentiation Medium 1. Cells were then harvested as described and subjected to flow cytometry and FACS analysis using fluorescently labeled antibodies for CD45, CD43, CD34, CD38, CD90, CD45RA as described. […] Given the verified presence of neural crest cells in the AGM niche, we are confident that these cells play a role in establishing definitive hematopoiesis in the developing embryo. As such, long term engraftment and reconstitution ability of hematopoietic progenitors and phenotypic stem cells produced from iPS and ES cells differentiated with Differentiation Medium 1 plus norepinephrine as described above are currently underway. The engraftment and reconstitution studies will be conducted as described by the protocol outlined above in the Materials and Methods.

Question: How did the “total output of CD90+ cells” value ([1]; LG101506 1 uM in Differentiation Medium 1, ES, iPS) turn out when C/C(=C/C=C/C(C)=C/C(=O)O)c1cc(C(C)(C)C)cc(C(C)(C)C)c1OCC(F)F [LG101506] was run?
Answer: Its value is “increases”.

Question: And the “total number of cells” value ([1]; butein 10 uM)?
Answer: Its value is “increased”.

Question: And the “suitability of generated phenotypic HSC cells for in vivo engraftment” value (“suitability” for short) [2]?
Answer: The value was “suitable for successful in vivo engraftment”.

Question: What about the “CFU cellularity and output” value [3] of the same molecule?
Answer: Its value is “enhances”.

Question: How did the “numbers of all cells with the progenitor and phenotypic stem cell phenotypes” value (iPS cells) turn out when CC(C)(C)Cn1c(N)nc2ccc(-c3[nH]c(C(C)(C)C)nc3-c3ccc(F)cc3)nc21 [LY2228820] was run?
Answer: The value was “increased”.

Question: What about the “increase of phenotypic hematopoietic stem cell phenotype (CD45+, CD43+, CD34+, CD38−, CD90+, CD45RA−) over DEAB-containing Differentiation Medium 1 control” value (H1 ES cells) of the same molecule?
Answer: Its value is about 20%.

Question: What about the “levels of the intermittent progenitor phenotype (CD45+, CD43+, CD34+, CD38−)” value (H1 ES cells) of the same molecule?
Answer: The value was “unaffected”.

Question: And the “suitability” value [2]?
Answer: The value was “suitable for successful in vivo engraftment”.

Question: What about the “size of CFU colonies” value [3] of the same molecule?
Answer: The value was “increases CFU size”.

Question: Which “CD34+, CD38− cells” value ([1]; added independently to Differentiation Medium 1: sodium selenite 100 nM, butein 10 uM) does the source give for O=C(/C=C/c1ccc(O)c(O)c1)c1ccc(O)cc1O [butein] here?
Answer: The value was “increased”.

Question: And the “total number of cells” value ([1]; butein 10 uM)?
Answer: Its value is “increased”.

Question: And the “suitability” value [2]?
Answer: The value was “suitable for successful in vivo engraftment”.

Question: What about the “enzyme activity for protection against reactive oxygen species (ROS)” value [4] of the same molecule?
Answer: The value was “increased”.

Question: NC[C@H](O)c1ccc(O)c(O)c1 [norepinephrine] was tested. Which “increase in HSC number” value (human ES cells; hES-derived hematopoietic cells, norepinephrine in Differentiation Medium 1) did it give?
Answer: Its value is 150%.

Question: What about the “fold improvement of numbers of phenotypic hematopoietic stem cells (CD45+, CD34+, CD43+, CD38−, CD90+, CD45RA−)” value (human ES cells; norepinephrine 10 uM or 300 uM in Differentiation Medium 1, FIG. 9C) of the same molecule?
Answer: Its value is “statistically significant increases”.

Question: And the “total viable blood cells (CD45+)” value (human ES cells; norepinephrine 10 uM or 300 uM, FIG. 9A)?
Answer: Its value is “insignificant improvements”.

Question: What about the “intermediate cells (CD45+, CD43+, CD34+, CD38−)” value (human ES cells; norepinephrine 10 uM or 300 uM, FIG. 9B) of the same molecule?
Answer: The value was “insignificant improvements”.

Question: And the “suitability” value [2]?
Answer: The value was “suitable for successful in vivo engraftment”.

Question: And the colony forming ability ([3]; hES-derived hematopoietic cells, norepinephrine, data not shown)?
Answer: Its colony forming ability is “has an effect”.

Question: What does the source list for CCCC(CCC)C(=O)O [valproic acid]?
Answer: CD34+CD38− cells that were CD90+ ([1]; Differentiation Medium 1 supplemented with 1 mM of valproic acid): 100%; total number of cells ([1]; butein 10 uM): increased; suitability of generated phenotypic HSC cells for in vivo engraftment [2]: suitable for successful in vivo engraftment

B1: Cripto: protein expressed in hypoxic endosteal niche cells (protein, UniProt P13385 31-150, looked up)
Protein Cripto: LGHQEFARPSRGYLAFRDDSIWPQEEPAIRPRSSQRVPPMGIQHSKELNRTCCLNGGTCMLGSFCACPPSFYGRNCEHDVRKENCGSVPHDTWLPKKCSLCKCWHGQLRCFPQAFLPGCD
Question: Which “suitability” value [2] does the source give for B1 here?
Answer: The value was “suitable for successful in vivo engraftment”.

Question: And the “size of CFU colonies” value [3]?
Answer: Its value is “increases the size”.
